Key:
Type in all cases: in vivo
tomatoes = experiment: Tomato pot study with sebacic acid (high heat, light and water stress)
Experimental: A tomato pot study was conducted with sebacic acid to determine the activity of sebacic acid in increasing tolerance to abiotic stress. The tomatoes were grown in a standard medium in pots and subjected to the abiotic stresses of high heat, light, and water stress. Growth of the plants was used as a measure of the ability of the sebacic acid to reduce the impact of abiotic stress. Growth measurements were taken 32 days after treatment with sebacic acid

Tomato plants = experiment: Tomato pot trial, heat and light stress in the greenhouse; settings: for Avg. growth in cm. (tomato fruits exposed to heat and light stress): April 2-May 10; for Avg growth in cm. (tomato fruits exposed to heat and light stress): April 2-May 18
Experimental: Tomato plants were exposed to heat and light stress in the greenhouse. Control plants had no treatment or were treated with Screen, Screen Plus1, Screen Plus2, or Screen Plus3, The experimental plants were treated with azelaic acid at 10^−4 M or 10^−3 M applied alone or in combination with Screen, Screen Plus1, Screen Plus2, or Screen Plus3.

apple = experiment: Apple field trial (heat, light and/or water stress), Shepparton, Victoria
Experimental: (§1) Field trials were carried out in parts of commercial orchards or fields in Australia during the 2009-2010 season. Crops were evaluated for specific parameters impacted by abiotic stress including fruit diameter, fruit number, amount of sunburn damage and number of flowers aborted. The crops evaluated were apple, citrus, tomato and wine grape. […] Heat and light stress occurred early during the trials, with exposures to 40° C.^+ temperatures in November; about 4-6 weeks after the trials were initiated. This period of stress was followed by varied temperatures including temperatures that were in the mid-to-high 30° C. range.
(§2) The foliage and fruit for each crop were assessed prior to treatment and then at regular intervals through the season for any signs of phytotoxicity. No phytotoxicity was observed on either the foliage or the fruit for any of the applied formulations for any of the crops. In addition, all trials were determined to be disease and pest free.
(§3) Screen (kaolin), Screen Duo (kaolin and salicylate), Surround (kaolin) and Parasol (calcium carbonate) are standard treatments used in the management of heat, light and water stress. Kaolin and calcium carbonate reduce stress by reflecting UV, visible, and infrared radiation, thereby reducing the impact of excess heat and light on photosynthesis and other cellular processes.
(§4) The citrus and apple trials received four and five applications, respectively, of the various formulations, set forth in Table 1 (below), prior to experiencing abiotic stress. Tomatoes received biweekly applications of the treatments throughout the trial.
As described above for citrus, early season heat, light and/or water stress can also impede cell division that occurs during Phase I of fruit development of apples. In the apple trial, which was conducted in Shepparton, Victoria, Australia, the load of fruit on each of the trees was thinned to an approximately equal value (approximately 200 fruit per tree; +/−5%), thus eliminating the confounding effect of fruit load on fruit diameter. To assess sunburn/heat stress damage, all apples were harvested from the center tree in each plot and rated according to the following rating system.
Rating Visual Assessment of the Fruit
1 Slight yellowing on the exposed side (<5% of the fruit area)
2 Noticeable yellowing on the exposed side (>5% of the fruit area)
3 Moderate sunburn with pronounced lenticels (fruit unmarketable)
4 Significant sunburn (fruit unmarketable)

citrus = experiment: Citrus field trial (heat, light and/or water stress), Cobram, Victoria
Experimental: as §1, §2, §3, §4
In general, a lower fruit load results in greater fruit diameter at harvest. Early season differences in fruit diameter are due to variation in cell division. It is well documented that at equal fruit load, heat stress will result in smaller fruit (i.e., reduced fruit diameter). In addition, heat, light, and/or water stress can also result in fruit number losses, commonly known in citrus as “June drop.” Past studies indicate that protecting the crop with Screen/Duo starting at petal fall can result in larger fruit and higher numbers of fruit, most likely by reducing the crop temperature and reducing stress signaling reactive oxygen (ROX).
The trial described below was conducted in Cobram, Victoria, Australia. Several parameters were measured as responses to heat, light and/or water stress: early citrus fruit diameter, number of fruit per cubic meter foliage, percent sunburn, later season fruit diameter and kilograms of fruit per cubic meter foliage. Sunburn damage is the late stage result of combined heat and light stress. […] There was little correlation observed between fruit number and fruit size (correlation […]).

wine grape = experiment: Wine grape field trial (sunburn/heat stress, yield), Kialla, Victoria
Experimental: as §1, §2, §3
The trial described below was conducted in Kialla, Victoria, Australia. The trial design was a randomized complete block with four replicates. Each plot comprises one panel of vines having four vines. For yield measurements the grapes were harvested from each of the two center vines in each panel and bunch numbers and weights were recorded. For assessment of sunburn/heat stress damage, the bunches of grapes were rated according to the following system: […]

tomato = experiment: Tomato field trial (flower abortion, sunburn, yield), Echuca, Victoria
Experimental: as §1
The foliage and fruit for each crop were assessed prior to treatment and then at regular intervals through the season for any signs of phytotoxicity.
Kaolin and calcium carbonate reduce stress by reflecting UV, visible, and infrared radiation, thereby reducing the impact of excess heat and light on photosynthesis and other cellular processes.
as §4
Flower abortion in tomato results in significant yield losses in tomato and begins at temperatures of 28 C, becoming more severe as temperatures rise. Further, once fruit has developed, it is susceptible to damage from heat and light, expressed as sunburn.
In the present study, tomatoes, located in a commercial field outside Echuca, Victoria, Australia, were treated with azeleic acid (CMM2009A). The number of aborted flowers per plot was assessed periodically during the season. Tomato yield and sunburn damage was assessed as follows. Tomatoes from the center of each plot were harvested from a one meter section of the tomato beds. The fruit was visually assessed as being either red in color and suitable for processing, green in color, or sun burnt. The fruit from these three categories were kept separate, weighed and recorded.

[1] = azelaic at 10^−4M where applied, Screen applications at rate equivalent of 25 kg/ha
[2] = apple field trial, rates per Table 3
[3] = citrus, versus standard treatments
[4] = wine grape field trial, 10 Mar. 2010, four applications

## sebacic acid (decanedioic acid)
tomatoes; tomato plants in pots, 1 × 10−4M, 32 days after treatment, high heat, light and water stress
  Growth (mm): 25.3 mm
tomatoes; tomato pot trial, Table 7
  Growth compared with the untreated plants (in words): statistically significant greater growth

## O=C(O)CCCCCCCC(=O)O [Azeleic acid, azelaic acid (nonanedioic acid)]
Tomato plants; azelaic at 10^−3M, no Screen
  Avg. growth in cm. (tomato fruits exposed to heat and light stress): 8.0 cm
  Avg growth in cm. (tomato fruits exposed to heat and light stress): 6.1 cm
Tomato plants; [1]
  Avg. growth in cm. (tomato fruits exposed to heat and light stress): 11.0 cm
  Avg growth in cm. (tomato fruits exposed to heat and light stress): 8.7 cm
Tomato plants; tomato pot trial, azelaic acid at 10^−4 M
  Protection from the abiotic stress as measured by average fruit size (in words): equivalent to or better than the standard treatments
apple; apple field trial, 12 Dec. 2010, fruit load thinned to approx. 200 fruit per tree, rates per Table 3
  Fruit Diameter (mm): 39.84 mm
apple; apple field trial, 16 Feb. 2010, 1&2 are export grade or commercially acceptable grade apples, rates per Table 3
  % Fruit Sunburn 1&2: 87.4%
apple; apple field trial, 17 Mar. 2010, rates per Table 3
  Yield kg/tree: 42.8 kg/tree
apple; [2]
  Apple Size g/apple: 152 g/apple
  Marketable Yield kg/tree: 37.4 kg/tree
apple; apple, alone or in combination with kaolin, salicylate, glycine betaine, or multiples thereof
  Protecting cell division as measured by fruit diameter, percent sunburn, apple size, yield and marketable yield (in words): as effective as the standard treatments
citrus; citrus field trial, 6 Jan. 2010, per cubic meter foliage, four applications, rates per Table 2
  Fruit Number per cubic meter: 10.62 per cubic meter
citrus; citrus field trial, 12 Apr. 2010 (later season), four applications, rates per Table 2
  Fruit Diameter (mm): 71.59 mm
citrus; citrus field trial, 14 Dec. 2010 (early fruit diameter), four applications, rates per Rate column of Table 2
  Fruit Diameter (mm): 29.49 mm
citrus; citrus field trial, 28 Jan. 2010, four applications, rates per Table 2
  Percent Sunburn: 5.6%
citrus; citrus field trial, 29 Sep. 2010, kilograms of fruit, four applications, rates per Table 2
  kgs/cubic meter of foliage: 3.8 kgs/cubic meter of foliage
citrus; citrus, azelaic acid alone versus Screen, Screen Duo, Surround and Parasol
  Protecting cell division, as measured by early fruit diameter (in words): as effective as the standard treatments
citrus; [3]
  Protection from sunburn damage (in words): equal to that obtained using the standard treatments
  Reducing fruit loss (in words): as effective in reducing fruit loss
Wine grape; wine grape field trial, 10 Mar. 2010, average weight of a bunch, four applications
  Bunch Weight (grams): 94.7 grams
Wine grape; [4]
  Yield kg/ha: 9230 kg/ha
  Yield kg/vine: 3.6 kg/vine
Wine grape; wine grape field trial, 10 Mar. 2010, rating 1 = 0%, 2 = 1-5% incidence of sunburn/heat stress on bunches, four applications, rates per Table 6
  % Bunches Rating 1 + 2: 96.8%
Wine grape; wine grape, alone or in combination with salicylate, kaolin, or combinations thereof
  Protection from heat, water and light stress (bunch rating, yield, bunch weight; in words): equivalent to or better than the standard treatments
tomato; 12 Mar. 2010, red fruit suitable for processing, ten applications
  Yield Red MT/ha: 131 MT/ha
tomato; 12 Mar. 2010, sun burnt fruit, ten applications
  Yield Sunburn MT/ha: 6.6 MT/ha
tomato; 12 Mar. 2010, ten applications
  Soluble Solids MT/ha: 6.2 MT/ha
  Total Yield MT/ha: 137.6 MT/ha
tomato; 20 Feb. 2010, ten applications, rates per Table 4
  Number Sunburn Fruit per plot: 21.3 per plot
tomato; 20 Jan. 2010, ten applications, rates per Table 4
  Aborted Flowers per sq m of the plot: 5 per sq m of the plot
tomato; alone or in combination with salicylate, kaolin, glycine betaine
  Protection from sunburn damage (in words): equivalent to or better than the standard treatments
tomato; versus standard treatments
  Number of flowers aborted (in words): reduce the number of flowers aborted to the same degree as the standard treatments

Reference: patent publication US10136641B2, “Methods for increasing tolerance to abiotic stress in plants” (Crop Microclimate Management Inc., priority 2010, dated 2018)
